Patent publication US10806726B2, “Methods of using indazole-3-carb oxamides and their use as Wnt/B-catenin signaling pathway inhibitors” (Samumed, LLC, priority 2016, dated 2020)

Assays:
KC/GRO in plasma = assay: Rat Tendinopathy Model (1), plasma biomarker KC/GRO; assay type: in vivo
Method: (§1) Fifty (50 μl) of Collagenase Type IA (10 mg/ml in PBS, pH 7.4, approximately 469 units/mg) (Catalog # C5138, Sigma, St. Louis, Mo.) was injected into the Achilles tendon of both ankles near the osteotendinous junction of male Sprague Dawley CD® IGS rats (CRL, Inc.), using insulin syringes with 28.5 G needle.
[…] […] All rats were periodically observed for any pain, illnesses or abnormalities. At various time points, blood was collected for plasma in lithium heparin coated tubes by saphenous vein bleeding. For histology, rats were euthanized using isoflurane, tendons were isolated (n=6 tendons/group), fixed in 10% buffered formalin (Catalog # SF93-4, Fisher, Pittsburgh Pa.) and H & E histology staining was performed at a secondary site (Pacific Pathology, San Diego, Calif.). For biochemical analysis, tendons were isolated (n=4 tendons/group), flash frozen in liquid nitrogen and then stored at −80° C. for subsequent biochemical analysis (not reported).
Following manufacturer's instructions, KC/GRO plasma levels were determined using the KC/GRO Immunoassay kit (Catalog#900-K57, Peprotech, Rocky Hill, N.J.). Briefly, 96-well plates were coated with the anti-rat KC/GRO capture antibody overnight and washed to remove excess antibody. Plasma samples were incubated in the coated plates for 2 hours at room temperature. Following washes to remove unbound proteins, biotinylated anti-rat KC/GRO detection antibody was added and incubated for 30 mins at room temperature. Following washes to remove unbound excess antibody, avidin-HRP was added and incubated for 30 mins at room temperature. Following washes to remove unbound Avidin-HRP, the ABTS substrate was added and the plates were read on the Cytation 3 plate reader (Biotek Inc., Winooski, Vt.) at an absorbance of 525 nm with correction at 450 nm. All samples were processed in triplicate.
In this study, a total of 64 sections were scored for Group 1 (sham injection group) and approximately 96 sections each for Group 2 (Collagenase-Vehicle), Group 3 (Collagenase-compound 175 with BA preservative) group and Group 4 (Collagenase-compound 175 without preservative). To determine statistical significance between groups, student's t-test was performed with p<0.05 considered as significant for histology scoring and biomarker assay.

[1] = system: collagenase-induced tendonitis of the Achilles tendon in Sprague Dawley rats; assay: Rat Tendinopathy Model (2), collagenase-induced, tendon histology scoring; assay type: in vivo; settings: for tendon histology score: topical once daily 21 days, total score of 20
Method: as §1
Rats were divided into 6 groups, with 6 animals per group except 8 animals in Group 2: Group 1 (sham injection), Group 2 (Collagenase-Vehicle with 0.5% Phx), Group 3 (Collagenase-compound 175 3 mg/mL with 0.5% BA), Group 4 (Collagenase-compound 175 10 mg/mL with 0.5% BA), Group 5 (Collagenase-compound 175 3 mg/mL with 0.5% Phx) and Group 6 (Collagenase-compound 175 10 mg/mL with 0.5% Phx). […] All rats were periodically observed for any pain, illnesses or abnormalities. At various time points, blood was collected for plasma in lithium heparin coated tubes by saphenous vein bleeding. For histology, rats were euthanized using isoflurane, tendons were isolated (n=8 tendons/group), fixed in 10% buffered formalin (Catalog # SF93-4, Fisher, Pittsburgh, Pa.) and H & E histology staining was performed at a secondary site (Pacific Pathology, San Diego, Calif.). For biochemical analysis, tendons were isolated (n=4 tendons/group), flash frozen in liquid nitrogen and then stored at −80° C. for subsequent biochemical analysis (not reported). Additionally, one (1) day after collagenase injection, 4 tendons were collected from Group 2 (vehicle) to observe the induction of inflammation (not reported).
There is biological variability in response to collagenase when injected directly into the tendons. […] Therefore, the entire tendon was isolated and placed in a tissue cassette and embedded in paraffin. Five (5) μm sections were generated with an average of 3 sections being fixed on one slide with a minimum of eight (8) slides per tendon and subjected to Hematoxylin & Eosin (H&E) staining. Slides were viewed under an upright light microscope (EVOS AMEX-1200) at a 10× magnification and scored blinded using a 1-4 scoring system of severity: 1-representing severe damage and 4—representing normal tendon, for Linearity of the fiber structure, Shape of the tendon cells, Density of the tendon cells, Inflammation, and Hemorrhage for a total score of twenty (20) using a modification of that described previously (Urdzikova et al., 2014—see Table 3). After the analysis was completed, the scorer was unblinded and scores for each criterion was annotated, totaled and total scores from each section were averaged together to generate a final score for each rat followed by averaging of scores for a given treatment group.
For tendon scoring, each section was analyzed following a 1-4 point scoring system as previously described (Urdzikova et al., 2014) with the exclusion of one variable, Thickness of the epitenon, due to difficulty in discerning the epitenon layer in the histology sections. In this study, a total of 94 sections were scored for Group 1 (sham injection, control group) and between 92-116 sections for Group 2 (Collagenase-Vehicle with 0.5% Phx); Group 3 (Collagenase-compound 175 3 mg/mL with 0.5% BA), Group 4 (Collagenase-compound 175 10 mg/mL with 0.5% BA), Group 5 (Collagenase-compound 175 3 mg/mL with 0.5% Phx) and Group 6 (Collagenase-compound 175 10 mg/mL with 0.5% Phx).

`COc1ccc(NC(=O)c2n[nH]c3ccc(-c4cncc(CN5CCCCC5)c4)cc23)cn1` [compound 175, N-(6-Methoxypyridin-3-yl)-5-(5-(piperidin-1-ylmethyl)pyridin-3-yl)-1H-indazole-3-carboxamide] was tested, and the “plasma KC/GRO vs vehicle” value (KC/GRO in plasma; 10 mg/mL with or without BA preservative) was “significantly decreased the levels of KC/GRO in plasma”, the “Plasma KC/GRO Concentration” value (KC/GRO in plasma; Day 0, Group 3, 10 mg/mL with 0.5% BA) was 332 ± 51.3 pg/mL and the “Plasma KC/GRO Concentration” value (KC/GRO in plasma; Day 0, Group 4, 10 mg/mL without BA, with 0.5% Tween 80) was 530 ± 31.4 pg/mL. For the same compound, the “Plasma KC/GRO Concentration” value (KC/GRO in plasma; Day 1, Group 3, 10 mg/mL with 0.5% BA) was 521 ± 23.9 pg/mL, the “Plasma KC/GRO Concentration” value (KC/GRO in plasma; Day 1, Group 4, 10 mg/mL without BA, with 0.5% Tween 80) was 637 ± 120 pg/mL and the “Plasma KC/GRO Concentration” value (KC/GRO in plasma; Day 3, Group 3, 10 mg/mL with 0.5% BA) was 813 ± 61.4 pg/mL. The “Plasma KC/GRO Concentration” value (KC/GRO in plasma; Day 3, Group 4, 10 mg/mL without BA, with 0.5% Tween 80) was 541 ± 58.9 pg/mL, the “Plasma KC/GRO Concentration” value (KC/GRO in plasma; Day 5, Group 3, 10 mg/mL with 0.5% BA) was 480 ± 48.7 pg/mL and the “Plasma KC/GRO Concentration” value (KC/GRO in plasma; Day 5, Group 4, 10 mg/mL without BA, with 0.5% Tween 80) was 410 ± 86.0 pg/mL. For the same compound, the “Plasma KC/GRO Concentration” value (KC/GRO in plasma; Day 7, Group 3, 10 mg/mL with 0.5% BA) was 421 ± 57.2 pg/mL, the “Plasma KC/GRO Concentration” value (KC/GRO in plasma; Day 7, Group 4, 10 mg/mL without BA, with 0.5% Tween 80) was 451 ± 76.6 pg/mL and the “Plasma KC/GRO Concentration” value (KC/GRO in plasma; Day 14, Group 3, 10 mg/mL with 0.5% BA) was 400 ± 10.3 pg/mL. For the same compound, the “Plasma KC/GRO Concentration” value (KC/GRO in plasma; Day 14, Group 4, 10 mg/mL without BA, with 0.5% Tween 80) was 424 ± 76.2 pg/mL, the “Plasma KC/GRO Concentration” value (KC/GRO in plasma; Day 21, Group 3, 10 mg/mL with 0.5% BA) was 408 ± 83.3 pg/mL and the “Plasma KC/GRO Concentration” value (KC/GRO in plasma; Day 21, Group 4, 10 mg/mL without BA, with 0.5% Tween 80) was 347 ± 111 pg/mL. The “plasma KC/GRO levels, range” value (KC/GRO in plasma; Days 5-21, treated group with BA) was 400 to 480 pg/mL, the “plasma KC/GRO levels, range” value (KC/GRO in plasma; Days 5-21, treated group without BA) was 347 to 451 pg/mL and the “blinded histology scoring of tendon injury and inflammation vs vehicle” value ([1]; 3 and 10 mg/mL, with either BA or Phx as preservative) was “significantly ameliorated collagenase-induced tendinopathy”. For the same compound, the tendon histology score ([1]; Group 3, 3 mg/mL with 0.5% BA) was 14.5 (±1.15), the tendon histology score ([1]; Group 4, 10 mg/mL with 0.5% BA) was 14.8 (±0.968) and the tendon histology score ([1]; Group 5, 3 mg/mL with 0.5% Phx) was 15.1 (±0.506). The tendon histology score ([1]; Group 6, 10 mg/mL with 0.5% Phx) was 13.2 (±0.855).
